Patent publication US9301911B2, “Composition comprising tauroursodeoxycholic acid” (priority 2012, dated 2016)

Legend:
[1] = tested on: collagenase; test: Inhibitory activity on collagenase (azocoll assay); type: biochemical; settings: for Comparative inhibitory activity: [collagenase-inhibitory percentage of TUDCA / that of UDCA]*100
Protocol: The inhibitory activities of tauroursodeoxycholic acid (TUDCA) and ursodeoxycholic acid (UDCA) on collagenase were evaluated according to an azocoll assay method. Azocoll, Azo dye-impregnated collagen, is not dissolved in Tris-buffer. […] Therefore, by reacting said test materials with azocoll and then measuring the respective absorbance, the inhibitory activities of said materials on collagenase can be determined.
2% Azocoll solution (200 μl) and a buffer solution (0.01 M Tris-HCl, 1 mM CaCl2, pH 7.8) (150 μl) were respectively added to the 6 test tubes to obtain the solutions (Solution A1 to A6). Each solution (100 μl) obtained by dissolving TUDCA or UDCA in 10% ethanol in various concentrations was added to the solutions A1 to A6, so as to obtain the final concentrations of 1.600 w/v %, 0.533 w/v %, and 0.178 w/v %, respectively. Collagenase (50 μl) having 100 ppm concentration was added to the respective test mixture, which was then stirred in a 37° C. incubator for 18 hours. Each test tube was centrifuged for 5 minutes. The supernatant was separated from each test tube and then added to a 96-well plate. The absorbance at 540 nm was measured by a spectrophotometer and then the activity of the test group was determined from the standard activity curve. The standard activity curve was separately prepared by adding 10, 25, 50, and 100 μl of collagenase to the azocoll solution.
The collagenase-inhibitory ratio of TUDCA to the collagenase-inhibitory ratio of UDCA was determined according to the following formula and the results thereof are shown in Table 1. Comparative inhibitory activity=[Collagenase-inhibitory percentage of TUDCA/Collagenase-inhibitory percentage of UDCA]*100

[2] = tested on: S. mutans; test: Antimicrobial activity against S. mutans (growth inhibition, O.D. 600 nm); type: cell-based, Streptococcus mutans
Protocol: We evaluated antimicrobial activities of TUDCA (PRODOTTI CHIMICI E ALIMENTARI S.p.A. Co., Italy), bamboo salt, xanthorrhiza oil (curcuma xanthorrhiza oil having 22-35% of xanthorrhizol, ‘Curcuma Xanthorrhiza Essential Oil’ extracted from Curcuma Xanthorrhiza Root, Daewoong Bio Inc.), and a mixture thereof, against S. Mutans. Briefly, to each well of a 96-well plate, were added 100 μl of BHI broth (Brain Heart Infusion broth, Sigma-Aldrich) and each test material in two times higher concentration than the concentration shown in the following Table 2. S. mutans was cultured in BHI broth (Brain Heart Infusion broth, Sigma-Aldrich) at 35° C. for 24 hours. Absorbance at 600 nm of the S. mutans-containing culture medium was adjusted to 0.063 to 0.12 and then the resulting culture medium was diluted to 1/500. The diluted S. Mutans-containing culture medium (100 μl) was added to each well of the 96-well plate. The 96-well plate was incubated at 35° C. for 24 hours, followed by measuring the O.D. values at 600 nm with a spectrophotometer for obtaining the respective growth inhibition percentage.
Antimicrobial activities against S. mutans were evaluated using TUDCA in a relatively low concentration. Using the same kinds of TUDCA, bamboo salt, and xanthorrhiza oil, the evaluations of antimicrobial activity were carried out in the same manners as in Example 2.

Comparative inhibitory activity ([1]; test material 0.178 w/v %): 264.75%
Comparative inhibitory activity ([1]; test material 0.533 w/v %): 252.56%
Comparative inhibitory activity ([1]; test material 1.600 w/v %): 227.17%
SMILES: C[C@H](CCC(=O)NCCS(=O)(=O)O)[C@H]1CC[C@H]2[C@@H]3[C@@H](O)C[C@@H]4C[C@H](O)CC[C@]4(C)[C@H]3CC[C@]12C [TUDCA, tauroursodeoxycholic acid]
inhibitory activity against collagenase in comparison with UDCA ([1]; at the same concentration, in comparison with UDCA): about two times more strong inhibitory activity against collagenase
Growth inhibition ([2]; Table 2, TUDCA 0.5 w/v %): 38 ± 16%
Growth inhibition ([2]; Table 2, TUDCA 1 w/v %): 51 ± 13%
Growth inhibition ([2]; Table 3, TUDCA 0.01 w/v %): 13%
growth-inhibition activity against S. mutans (in words) ([2]; summary of Table 2): effective growth-inhibition activity
